{"source": "patent US7790710B2", "about": "“Imidazopyridine derivatives useful as iNOS inhibitors” (NYCOMED GmbH, priority 2005, dated 2010)", "key": {"[1]": {"target": "T1, human inducible NO-synthase (Homo sapiens, UniProt P35228)", "experiment": "Measurement of inducible NO-synthase activity", "assay_type": "biochemical", "conditions": "crude cytosolic fraction containing human iNOS; 0.1 μM arginine; [3H]arginine; read-out: Inhibition of iNOS activity -logIC50 (converted)", "protocol": "(§1) The assay is performed in 96-well microtiter F-plates (Greiner, Frickenhausen, FRG) in a total volume of 100 μl in the presence of 100 nM calmodulin, 226 μM CaCl2, 477 μM MgCl2, 5 μM flavin-adenine-dinucleotide (FAD), 5 μM flavin mononucleotide (FMN), 0.1 mM nicotinamide adenine dinucleotide phosphate (NADPH), 7 mM glutathione, 10 μM tetrahydrobiopterine (BH4) and 100 mM 4-(2-hydroxyethyl)piperazine-1-ethanesulfonic acid (HEPES) pH 7.2. Arginine concentrations are 0.1 μM for enzyme inhibition experiments. 150000 dpm of [^3H]arginine are added to the assay mixture. Enzyme reaction is started by the addition of 4 μg of a crude cytosolic fraction containing human inducible NO-synthase and the reaction mixture is incubated for 45 to 60 min at 37° C. Enzyme reaction is stopped by adding 10 μl of 2M 2-morpholinoethane sulfonic acid buffer (MES-buffer) pH 5.0. 50 μl of the incubation mixture are transferred into a MADP N65 filtration microtiter plate (Millipore, Eschborn, FRG) containing already 50 μl of AG-50W-X8 cation exchange resin (Biorad, München, FRG). The resin in the Na loaded form is pre-equilibrated in water and 70 μl (corresponding to 50 μl dry beads) are pipetted under heavy stirring with a 8 channel pipette into the filtration plate. After pipetting 50 μl of the enzyme reaction mixture onto the filtration plates, the plates are placed on a filtration manifold (Porvair, Shepperton, UK) and the flow through is collected in Pico scintillation plates (Packard, Meriden, Conn.). The resin in the filtration plates is washed with 75 μl of water (1×50 μl and 1×25 μl) which is also collected in the same plate as the sample. The total flow through of 125 μl is mixed with 175 μl of Microscint-40 scintillation cocktail (Packard) and the scintillation plate is sealed with TopSeal P-foil (Packard). Scintillation plates are counted in a szintillation counter.\n(§2) For the measurement of inducible NO-synthase-inhibiting potencies of compounds according to the invention increasing concentrations of inhibitors are included into the incubation mixture. IC50 values are calculated from the percent inhibition at given concentrations by nonlinear least square fitting."}, "[2]": {"target": "T1, human inducible NO-synthase", "experiment": "Measurement of inducible NO-synthase activity in the presence of 20% human plasma serum", "assay_type": "biochemical", "conditions": "20% (v/v) human plasma serum added into the reaction volume; read-out: Inhibition of iNOS activity -logIC50 20% human serum (converted)", "protocol": "as §1, §2\nThe assay determining the human plasma serum binding of compounds according to the invention was performed essentially as the enzymatic activity assay described above. Human plasma serum 20% (v/v) was added into the reaction volume. Human serum was obtained after coagulation and sedimentation of drawn donor blood. After centrifugation (two times 3500 rpm, 30 min) the plasma serum was dialyzed in phosphate buffered saline (PBS) for 18 h using dialysis cassettes with a molecular weight cuttoff of 3500 Dalton (Slide-a-Lyzer 3.5 K, Pierce, Rockford Ill.) in order to reduce the L-arginine concentration that is interfering with the radioactive activity assay. The buffer was refreshed 5 times during dialysis. The serum was aliquoted and frozen at −20° C. until use. Inhibitory potency of the compounds according to the invention was determined as described above."}}, "data": [{"smiles": "Cc1ccc(NS(=O)(=O)c2ccc(-c3cnc4[nH]c(CCC5CCCCC(N)=N5)nc4c3)cc2)c(F)c1", "note": "(stereo not shown) [compound 8, 4-{2-[2-(7-Amino-3,4,5,6-tetrahydro-2H-azepin-2-yl)-ethyl]-3H-imidazo[4,5-b]pyridin-6-yl}-N-(2-fluoro-4-methyl-phenyl)-benzenesulfonamide]", "values": [{"measurement": "IC50", "setting": "[1]", "result": 589, "unit": "nM"}, {"measurement": "melting point", "result": 265, "unit": "°C"}]}, {"smiles": "NC1=NC(CCc2nc3cc(-c4ccc(S(=O)(=O)N5CCC5)cc4)cnc3[nH]2)CCCC1", "note": "(stereo not shown) [compound 6, 7-(2-{6-[4-(Azetidine-1-sulfonyl)-phenyl]-3H-imidazo[4,5-b]pyridin-2-yl}-ethyl)-4,5,6,7-tetrahydro-3H-azepin-2-ylamine]", "values": [{"measurement": "IC50", "setting": "[1]", "result": 302, "unit": "nM"}, {"measurement": "IC50", "setting": "[2]", "result": 603, "unit": "nM"}, {"measurement": "melting point", "result": "154 °C (dec.)"}]}, {"smiles": "CN(C)S(=O)(=O)c1ccc(-c2cnc3[nH]c(CCC4CCCCC(N)=N4)nc3c2)cc1", "note": "(stereo not shown) [compound 5, 4-{2-[2-(7-Amino-3,4,5,6-tetrahydro-2H-azepin-2-yl)-ethyl]-3H-imidazo[4,5-b]pyridin-6yl}-N,N-dimethyl-benzenesulfonamide]", "values": [{"measurement": "IC50", "setting": "[1]", "result": 229, "unit": "nM"}, {"measurement": "IC50", "setting": "[2]", "result": 933, "unit": "nM"}, {"measurement": "melting point", "result": "195 °C (dec.)"}]}, {"smiles": "NC1=NC(CCc2nc3cc(-c4cc5ccccc5o4)cnc3[nH]2)CCCC1", "note": "(stereo not shown) [compound 4, 7-[2-(6-Benzofuran-2-yl-3H-imidazo[4,5-b]pyridin-2-yl)-ethyl]-4,5,6,7-tetrahydro-3H-azepin-2-ylamine]", "values": [{"measurement": "IC50", "setting": "[1]", "result": 229, "unit": "nM"}, {"measurement": "IC50", "setting": "[2]", "result": 955, "unit": "nM"}]}, {"smiles": "CN(CC1CCCO1)S(=O)(=O)c1ccc(-c2cnc3[nH]c(CCC4CCCCC(N)=N4)nc3c2)cc1", "note": "(stereo not shown) [compound 10, 4-{2-[2-(7-Amino-3,4,5,6-tetrahydro-2H-azepin-2-yl)-ethyl]-3H-imidazo[4,5-b]pyridin-6-yl}-N-methyl-N-(tetrahydro-furan-2-ylmethyl)-benzenesulfonamide]", "values": [{"measurement": "IC50", "setting": "[1]", "result": 617, "unit": "nM"}, {"measurement": "melting point", "result": 260, "unit": "°C"}]}, {"smiles": "CCN1CCN(S(=O)(=O)c2ccc(-c3cnc4[nH]c(CCC5CCCCC(N)=N5)nc4c3)cc2)CC1", "note": "(stereo not shown) [compound 7, 7-(2-{6-[4-(4-Ethyl-piperazine-1-sulfonyl)-phenyl]-3H-imidazo[4,5-b]pyridin-2-yl}-ethyl)-4,5,6,7-tetrahydro-3H-azepin-2-ylamine]", "values": [{"measurement": "IC50", "setting": "[1]", "result": 468, "unit": "nM"}, {"measurement": "melting point", "result": 199, "unit": "°C"}]}, {"smiles": "COc1ccc(-c2cnc3[nH]c(CCC4CCCCC(N)=N4)nc3c2)cc1", "note": "(stereo not shown) [compound 3, 7-{2-[6-(4-Methoxy-phenyl)-3H-imidazo[4,5-b]pyridin-2-yl]-ethyl}-4,5,6,7-tetrahydro-3H-azepin-2-ylamine]", "values": [{"measurement": "IC50", "setting": "[1]", "result": 251, "unit": "nM"}, {"measurement": "IC50", "setting": "[2]", "result": 1580, "unit": "nM"}, {"measurement": "melting point", "result": 306, "unit": "°C"}]}, {"smiles": "Cc1ccccc1NS(=O)(=O)c1ccc(-c2cnc3[nH]c(CCC4CCCCC(N)=N4)nc3c2)cc1", "note": "(stereo not shown) [compound 9, 4-{2-[2-(7-Amino-3,4,5,6-tetrahydro-2H-azepin-2-yl)-ethyl]-3H-imidazo[4,5-b]pyridin-6-yl}-N-o-tolyl-benzenesulfonamide]", "values": [{"measurement": "IC50", "setting": "[1]", "result": 398, "unit": "nM"}, {"measurement": "melting point", "result": 215, "unit": "°C"}]}, {"smiles": "NC1=NC(CCc2nc3cc(-c4ccccc4)cnc3[nH]2)CCCC1", "note": "(stereo not shown) [compound 1, 7-[2-(6-Phenyl-3H-imidazo[4,5-b]pyridin-2-yl)-ethyl]-4,5,6,7-tetrahydro-3H-azepin-2-ylamine]", "values": [{"measurement": "IC50", "setting": "[1]", "result": 170, "unit": "nM"}, {"measurement": "IC50", "setting": "[2]", "result": 1000, "unit": "nM"}, {"measurement": "melting point", "result": "117 °C (dec.)"}]}, {"smiles": "N#Cc1ccc(-c2cnc3[nH]c(CCC4CCCCC(N)=N4)nc3c2)cc1", "note": "(stereo not shown) [compound 2, 7-[2-(6-{4-Cyano-phen-1-yl}-3H-imidazo[4,5-b]pyridin-2-yl)-ethyl]-4,5,6,7-tetrahydro-3H-azepin-2-ylamine]", "values": [{"measurement": "IC50", "setting": "[1]", "result": 224, "unit": "nM"}, {"measurement": "IC50", "setting": "[2]", "result": 398, "unit": "nM"}, {"measurement": "melting point", "result": "175 °C (dec.)"}]}]}
